Here are results for 15 compounds from ChEMBL document CHEMBL2086355, “Synthesis and SAR of 2',3'-bis-O-substituted N(6), 5'-bis-ureidoadenosine derivatives: implications for prodrug delivery and mechanism of action” (Bioorg Med Chem Lett, 2012).

Each structure is given as a SMILES string. In brackets after ≈: the same amount, converted by molar mass.

What is called IC50 is the concentration at which inhibition is half-maximal.

Experiment [1] deals with L1210. Put plainly: Antiproliferative activity against mouse L1210 cells after 48 hrs by Coulter counting analysis. It is filed as functional, cell-based. As to conditions: L1210, 48 h.
The subject of experiment [2] is FM3A. Put plainly: Antiproliferative activity against mouse FM3A cells after 48 hrs by Coulter counting analysis. It is filed as functional, cell-based.
The subject of experiment [3] is CCRF-CEM. Briefly: Antiproliferative activity against human CEM cells after 72 hrs by Coulter counting analysis. It is filed as functional, cell-based.
Experiment [4] concerns HeLa. Briefly: Antiproliferative activity against human HeLa cells after 96 hrs by Coulter counting analysis. It is filed as functional, cell-based.
The target of experiment [5] is Bone morphogenetic protein receptor type-1B (Homo sapiens) (UniProt O00238). Briefly: Inhibition of BMPR1b assessed as activity remaining at 10 uM by competitive binding inhibition assay.
Chain of Bone morphogenetic protein receptor type-1B (Homo sapiens) (O00238 whole entry): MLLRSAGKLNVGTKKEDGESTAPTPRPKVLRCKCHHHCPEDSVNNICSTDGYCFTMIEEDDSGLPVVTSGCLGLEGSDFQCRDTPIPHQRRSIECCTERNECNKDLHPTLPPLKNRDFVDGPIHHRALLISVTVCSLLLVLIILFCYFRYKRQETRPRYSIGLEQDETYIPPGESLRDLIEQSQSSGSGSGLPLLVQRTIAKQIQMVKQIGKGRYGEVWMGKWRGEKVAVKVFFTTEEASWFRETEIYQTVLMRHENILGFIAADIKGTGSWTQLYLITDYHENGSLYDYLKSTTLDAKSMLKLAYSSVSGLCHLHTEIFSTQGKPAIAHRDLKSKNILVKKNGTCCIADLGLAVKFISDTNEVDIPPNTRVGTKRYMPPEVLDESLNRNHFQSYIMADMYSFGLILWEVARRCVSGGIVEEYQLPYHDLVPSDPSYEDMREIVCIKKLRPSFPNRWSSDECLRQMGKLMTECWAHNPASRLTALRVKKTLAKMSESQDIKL

Consider `CCCCCCCCCC(=O)O[C@@H]1[C@H](OC(=O)CCCCCCCCC)[C@@H](CNC(=O)NC)O[C@H]1n1cnc2c(NC(=O)Nc3ccccc3)ncnc21`, for which the IC50 in experiment [1] is > 100 µg/mL; in experiment [2], 140 µg/mL (≈ 186 µM); in experiment [3], > 100 µg/mL; in experiment [4], > 100 µg/mL.

For `CCCCCCCC(=O)O[C@@H]1[C@H](OC(=O)CCCCCCC)[C@@H](CNC(=O)NC)O[C@H]1n1cnc2c(NC(=O)Nc3ccccc3)ncnc21`, the IC50 in experiment [1] amounted to 11 µg/mL (≈ 15.8 µM); in experiment [2], 32 µg/mL (≈ 46.1 µM); in experiment [3], 12 µg/mL (≈ 17.3 µM); in experiment [4] it was 16 µg/mL (≈ 23 µM).

As to `CNC(=O)NC[C@H]1O[C@@H](n2cnc3c(NC(=O)Nc4ccccc4)ncnc32)[C@H](OC(=O)c2ccccc2)[C@@H]1OC(=O)c1ccccc1`, the Activity in experiment [5] worked out at 100%. For the same compound, the half-inhibitory concentration (IC50) was 154 µg/mL (≈ 237 µM) in experiment [1], 61 µg/mL (≈ 93.8 µM) in experiment [2], > 200 µg/mL in experiment [3] and > 200 µg/mL in experiment [4].

With `CNC(=O)NC[C@H]1O[C@@H](n2cnc3c(NC(=O)Nc4ccccc4)ncnc32)[C@H](OC(=O)C(C)(C)C)[C@@H]1OC(=O)C(C)(C)C`, the concentration for half-maximal inhibition (IC50) in experiment [1] is 9.7 µg/mL (≈ 15.9 µM); in experiment [2], 15 µg/mL (≈ 24.6 µM); in experiment [3], 20 µg/mL (≈ 32.8 µM); in experiment [4], 17 µg/mL (≈ 27.8 µM).

On to `CNC(=O)NC[C@H]1O[C@@H](n2cnc3c(NC(=O)Nc4ccccc4)ncnc32)[C@H](OC(=O)C(C)C)[C@@H]1OC(=O)C(C)C`, for which the Activity in experiment [5] was 100%. Also, the IC50 in experiment [1] turned out to be 29 µg/mL (≈ 49.8 µM); in experiment [2], 44 µg/mL (≈ 75.5 µM); in experiment [3], 28 µg/mL (≈ 48.1 µM); in experiment [4], 73 µg/mL (≈ 125 µM).

For the compound `CCCC(=O)O[C@@H]1[C@H](OC(=O)CCC)[C@@H](CNC(=O)NC)O[C@H]1n1cnc2c(NC(=O)Nc3ccccc3)ncnc21`, the IC50 in experiment [1] was 20 µg/mL (≈ 34.3 µM); in experiment [2], 18 µg/mL (≈ 30.9 µM); in experiment [3], 29 µg/mL (≈ 49.8 µM); in experiment [4], 58 µg/mL (≈ 99.6 µM).

Consider `CNC(=O)NC[C@H]1O[C@@H](n2cnc3c(N)ncnc32)[C@H](OC(C)=O)[C@@H]1OC(C)=O`, for which the IC50 is 112 µg/mL (≈ 275 µM) in experiment [1], > 200 µg/mL in experiment [2], > 200 µg/mL in experiment [3] and > 200 µg/mL in experiment [4].

`CNC(=O)NC[C@H]1O[C@@H](n2cnc3c(NC(=O)Nc4ccccc4)ncnc32)[C@H](O[Si](C(C)C)(C(C)C)C(C)C)[C@@H]1O[Si](C(C)C)(C(C)C)C(C)C`: in experiment [5], the Activity was 100%. In addition, the IC50 was > 200 µg/mL in experiment [1], > 200 µg/mL in experiment [2], 142 µg/mL (≈ 188 µM) in experiment [3] and ≥ 200 µg/mL in experiment [4].

Turning to `CCCCCCCCCCCCCCCC(=O)O[C@@H]1[C@H](OC(=O)CCCCCCCCCCCCCCC)[C@@H](CNC(=O)NC)O[C@H]1n1cnc2c(NC(=O)Nc3ccccc3)ncnc21`, the IC50 in experiment [1] is > 100 µg/mL; in experiment [2] it was > 200 µg/mL; in experiment [3], > 100 µg/mL; in experiment [4], > 100 µg/mL.

Turning to `CNC(=O)NC[C@H]1O[C@@H](n2cnc3c(N)ncnc32)[C@H](OC(=O)c2ccccc2)[C@@H]1OC(=O)c1ccccc1`, the concentration for half-maximal inhibition (IC50) was 16 µg/mL (≈ 30.1 µM) in experiment [1], 36 µg/mL (≈ 67.7 µM) in experiment [2], 19 µg/mL (≈ 35.7 µM) in experiment [3] and 40 µg/mL (≈ 75.3 µM) in experiment [4].

For `CNC(=O)NC[C@H]1O[C@@H](n2cnc3c(NC(=O)Nc4ccccc4)ncnc32)[C@H](OC(C)=O)[C@@H]1OC(C)=O`, the Activity in experiment [5] came to 95%. The half-maximal inhibitory concentration (IC50) in experiment [1] was 97 µg/mL (≈ 184 µM); in experiment [2] it was 150 µg/mL (≈ 285 µM); in experiment [3], 107 µg/mL (≈ 203 µM); in experiment [4] it was > 200 µg/mL.

On to `CCCCCC(=O)O[C@@H]1[C@H](OC(=O)CCCCC)[C@@H](CNC(=O)NC)O[C@H]1n1cnc2c(NC(=O)Nc3ccccc3)ncnc21`, for which the half-maximal inhibitory concentration (IC50) in experiment [1] worked out at 9.5 µg/mL (≈ 14.9 µM); in experiment [2], 20 µg/mL (≈ 31.3 µM); in experiment [3] it was 10 µg/mL (≈ 15.7 µM); in experiment [4] it was 15 µg/mL (≈ 23.5 µM).

For `CNC(=O)NC[C@H]1O[C@@H](n2cnc3c(NC(=O)Nc4ccccc4)ncnc32)[C@H](O[Si](c2ccccc2)(c2ccccc2)C(C)(C)C)[C@@H]1O[Si](c1ccccc1)(c1ccccc1)C(C)(C)C`, the Activity in experiment [5] turned out to be 100%. Further, the IC50 in experiment [1] is > 200 µg/mL; in experiment [2], > 200 µg/mL; in experiment [3], ≥ 200 µg/mL; in experiment [4], 104 µg/mL (≈ 113 µM).

For the compound `CC[Si](CC)(CC)O[C@@H]1[C@H](O[Si](CC)(CC)CC)[C@@H](CNC(=O)NC)O[C@H]1n1cnc2c(NC(=O)Nc3ccccc3)ncnc21`, in experiment [5], the Activity turned out to be 100%. In addition, the 50% inhibitory concentration (IC50) came to 3.8 µg/mL (≈ 5.66 µM) in experiment [1], 3 µg/mL (≈ 4.47 µM) in experiment [2], 4.2 µg/mL (≈ 6.26 µM) in experiment [3] and 3.7 µg/mL (≈ 5.51 µM) in experiment [4].

As to `CNC(=O)NC[C@H]1O[C@@H](n2cnc3c(N)ncnc32)[C@H](OC(=O)C(C)C)[C@@H]1OC(=O)C(C)C`, the IC50 in experiment [1] was determined as 87 µg/mL (≈ 188 µM); in experiment [2], 107 µg/mL (≈ 231 µM); in experiment [3], 88 µg/mL (≈ 190 µM); in experiment [4], 99 µg/mL (≈ 214 µM).
